IC50 and inhibition data for six molecules are collected here from ChEMBL document CHEMBL1157777, “Identification of hits as matrix-2 protein inhibitors through the focused screening of a small primary amine library” (J Med Chem, 2010).

Molecules are shown by their SMILES. pIC50: −log10 of the molar value. Active and inactive are the calls of the source. The rule behind the calls is not given here.

The nature of test [1]: Inhibition of avian influenza virus H5N1 matrix 2 protein expressed in HEK293 cells assessed as cell viability after 24 hrs. The settings on record: Influenza A virus, H5N1, HEK293, 24 h. It is filed as cell-based.
Test [2] has as its system Influenza A virus. As to the kind of experiment: Antiviral activity against Influenza A virus (A/Hong Kong/8/1968([…])) infected in MDCK cells. It is filed as functional, organism-based.
A short description of test [3]: Inhibition of avian influenza virus (H5N1) matrix 2 protein expressed in HEK293 cells by path clamp electrophysiology method. It is filed as cell-based. Conditions: Influenza A virus.
Test [4] relates to HEK293. As to the kind of experiment: Inhibition of avian influenza virus (H5N1) matrix 2 protein expressed in HEK293 cells at 50 uM by path clamp electrophysiology method. It is filed as cell-based. Conditions: Influenza A virus.

Regarding `NC12CC3CC(CC1C3)C2`, the negative-log IC50 (pIC50) in test [1] is 4.72; in test [2], 4.42; in test [3], 4.87.
For the molecule `C[C@H]1[C@H](N)C[C@@H]2C[C@H]1C2(C)C`, the pIC50 in test [1] is 5.22; in test [2], 5.87; in test [3], 5.37.
As to `CC(C)(C)C1CCC(N)CC1` (centres undefined), the pIC50 is 5.47 in test [1], 4.48 in test [2] and 5.32 in test [3].
Consider `NC12CC3CC(CC(C3)C1)C2` [AMANTADINE], for which the negative logarithm of the IC50 (pIC50) is 5.45 in test [1], 5.22 in test [2] and 5.06 in test [3]. Also, in test [4], the inhibition entry was “inactive”.
Take `CC1(C)[C@@H]2CC[C@H](CN)[C@H]1C2`: the pIC50 was 4.59 in test [1], 5.64 in test [2] and 5.36 in test [3].
As to `C[C@@H]1[C@@H](N)C[C@H]2C[C@@H]1C2(C)C`, the pIC50 in test [1] is 4.64; in test [2], 5.22; in test [3] it was 5.17.
